Assays:
[1] = biological target: T1, pre-aggregated Aβ(1-42) peptide (Homo sapiens, UniProt P05067); test: Apparent binding constant (Kd) by double reciprocal fluorescence plot; conditions: compound 10, 5, 2.5, 1.25 μM; 5.0 μM pre-aggregated Aβ(1-42); PBS pH 7.4
T1 construct: preaggregated Aβ(1-42) peptides
Method: We also measured the apparent binding constants (Kd) of the compounds (in concentrations of 10, 5, 2.5 and 1.25 μM) to 5.0 μM pre-aggregated Aβ(1-42) peptide. The Kd can be measured from the double reciprocal of the fluorescent maximum and the concentration of the compound. See H. LeVine III, Protein Sci. 1993, 2:404-410. […] [22,] See LeVine, Id.; Lockhart, L. Ye, D. B. Judd, A. T. Merritt, P. N. Lowe, J. L. Morgenstern, G. Z. Hong, A. D. Gee, J. Brown, J. Biol. Chem. 2005, 280:7677-7684; M. Biancalana, K. Makabe, A. Koide, S. Koide, J. Mol. Biol. 2008, 383:205-213; M. Biancalana, K. Makabe, A. Koide, S. Koide, J. Mol. Biol. 2009, 385:1052-1063. The Kd corresponds to the −1/(x-intercept) of the linear regression.
Pre-aggregated Aβ(1-42) (5 μM final concentration) was mixed with various concentrations of compounds described herein (10, 5, 2.5, 1.25 μM) in PBS buffer (pH 7.4) and their fluorescence was measured. The negative inverse of the x-intercept of the linear regression, that was drawn between the double reciprocal of the fluorescence intensity maximum and concentration of the compound, represents the compound binding constant (Kd) to Aβ(1-42).
In order to quantify the dissociation constants (Kd's) for the binding of fluorescent compounds with aggregated β-amyloid peptides, we used the method described by LeVine (see H. LeVine III, Protein Sci. 1993, 2, 404-410). This method is similar to the method described by Benesi-Hildebran (see C. Yang, L. Liu, T. W. Mu, Q. X. Guo, Anal. Sci. 2000, 16, 537-539). Here, the fluorescence of the compound was measured with and without the addition of the aggregated peptides in solution. The relative fluorescence enhancement of the compound upon binding to aggregated β-amyloid peptides was determined by taking the difference between F (fluorescence after the addition of aggregated peptides) and F (fluorescence before the addition of aggregated peptides).
In order to estimate the binding constant (Kd) for the compound-Aβ complexes from the fluorescence studies, we made the following assumptions: • 1. All compounds are completely in solution and free of any significant competing binding process such as self-aggregation. • 2. The concentration of unbound compounds can be approximated as close to the total concentration of the compounds. • 3. The binding sites in the aggregated Aβ peptides are not completely occupied at the concentration of Aβ-binding compounds used for the fluorescence studies (i.e., the experiments are carried out under non-saturated binding conditions).
FIG. 2 and FIG. 6 provide double reciprocal plots of the measured fluorescence versus total concentration of compound [GO]. Assuming that [G] can be approximated as close to [GO] (assumption 2), we can obtain estimates for the Kd's of the compound-Aβ complexes from the x-intercept of the linear fits of the data for each compound.

[2] = Solubility in aqueous media (observation); format: physicochemical
[3] = biological target: T2, interaction of the aggregated Aβ peptide with a monoclonal anti-Aβ IgG (Homo sapiens, UniProt P05067); test: Semi-quantitative ELISA: inhibition of IgG-Aβ fibril interactions; format: binding; conditions: anti-Aβ IgG clone 6E10
T2 construct: Aggregated Aβ peptides were generated from synthetic Aβ(1-42) peptides
Method: The association of the synthesized compounds with aggregated Aβ peptides was tested using a semi-quantitative ELISA based assay developed by Yang and co-workers. See P. Inbar, J. Yang, Bioorg. Med. Chem. Lett. 2006, 16:1076-1079; P. Inbar, C. Q. Li, S. A. Takayama, M. R. Bautista, J. Yang, ChemBioChem 2006, 7:1563-1566; P. Inbar, M. R. Bautista, S. A. Takayama, J. Yang, Anal. Chem. 2008, 80:3502-3506. The assay is based on screening for molecules that inhibit the interaction of the aggregated Aβ peptide with a monoclonal anti-Aβ IgG raised against residues 1-17 of Aβ. Table 4 provides the concentrations of the compounds corresponding to 50% inhibition (IC50) of the IgG-Aβ interactions as well as the maximal percentage of the IgG's inhibited from binding to the fibrils. […] The maximum inhibition, a measure of the extent of surface coating of the aggregated peptide by the compounds, was determined to be between 40-98% (Table 4). See P. Inbar, J. Yang, Bioorg. Med. Chem. Lett. 2006, 16:1076-1079; P. Inbar, C. Q. Li, S. A. Takayama, M. R. Bautista, J. Yang, ChemBioChem 2006, 7:1563-1566; P. Inbar, M. R. Bautista, S. A. Takayama, J. Yang, Anal. Chem. 2008, 80:3502-3506. […] Specifically, while the maximum inhibition is between 81-98% for the phenyl compounds, it decreases to 58% for the longer naphthalene compound 11 and to 40% for the more conjugated stilbene 19.
Aggregated Aβ peptides were generated from synthetic Aβ(1-42) peptides by dissolving 30 μg of peptide in 90 μL of nanopure water (pH 5-6) and incubating at 37° C. for ≧72 h without agitation. Each well of a 96-well plate (well volume 0.4 mL; clear, flat bottom polypropylene) was coated for 3 h at 25° C. with 50 μL of 1.3 μM solution of Aβ peptides in phosphate-buffered saline (PBS, 10 mM NaH2PO4/Na2HPO4, 138 mM NaCl, 2.7 mM KCl, pH 7.4). After removal of the excess sample, 50 μL solutions of compounds in PBS buffer (various concentrations were obtained by diluting a stock solution with PBS buffer) were incubated in the wells for 12 h. […] The excess solutions were then removed and all wells were blocked for 30 min by adding 300 μL of a 1% (w/v) solution of bovine serum albumin in PBS buffer (BSA/PBS). On occasion, an additional blocking step was performed prior to incubation with solutions of small molecules. The blocking solution was discarded and the wells were washed once with 300 μL of PBS buffer. Wells were incubated for 1 h with 50 μL of a 1.1 nM solution (in 1% BSA/PBS, dilution 1:6000) of anti-Aβ IgG (clone 6E10, monoclonal, mouse), followed by removal of the solution. The wells were washed twice with 300 μL of PBS buffer and incubated for 60 min with 50 μL of the secondary IgG (anti-mouse IgG H+L, polyclonal, rabbit) conjugated with alkaline phosphatase (6.8 nM in 1% BSA/PBS, dilution 1:1000). The solution was discarded, and the wells were washed twice with 300 μL PBS buffer. Bound secondary IgGs were detected by the addition of 50 μL of a p-nitrophenyl phosphate solution (2.7 mM, in 100 mM diethanol amine/0.5 mM magnesium chloride, pH 9.8). Absorbance intensities were determined at 405 nm using a UV-vis spectroscopic plate reader (Sprectramax 190, Molecular Devices, Sunnyvale, Calif.). Each run was performed five times and averaged. Error bars represent standard deviations. Graphs were plotted and fitted with the sigmoid curve fitting.

T2 sequence (P05067 672-713 limits assumed): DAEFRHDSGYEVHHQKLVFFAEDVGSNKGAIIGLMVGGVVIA
T1 sequence (P05067 672-713 limits assumed): as above

Kd [1]: 1.4 µM | Solubility in aqueous media [2]: poor solubility in aqueous media | IC50 ([3]; 50% inhibition of IgG-Aβ interactions): 33.6 µM | Maximum % inhibition (ELISA) ([3]; maximal percentage of IgG inhibited from binding to the fibrils): 40%
Compound: COCCOCCOCCOC(=O)/C(C#N)=C/c1ccc(/C=C/c2ccc(N(C)C)cc2)cc1 [Cmpd 19, (E)-2-(2-(2-methoxyethoxyl)ethoxy)ethyl-cyano-3-(4-(4(dimethylamino)styryl)phenyl)acrylate]
